Measured values reported in patent US20260373274A1, “PEPTIDE-LINKED DRUG DELIVERY SYSTEM” (priority 2022, published 2026).
“Also recorded” adds a separate entry of the source. Where a SMILES comes first, the peptide text is derived from it. [ ]: non-standard residue; d: D form. The star is where a group is joined. X1 = COc1cc2cc(c1Cl)N(C)C(=O)C[C@H](OC(=O)[C@H](C)N(C)C(=O)CCS*)[C@]1(C)O[C@H]1[C@H](C)[C@@H]1C[C@@](O)(NC(=O)O1)[C@H](OC)/C=C/C=C(\C)C2; βAla = NCCC(=O)O; Mpa = O=C(O)CCS

Key:
[1] = test system: UMUC-3; test: Cell viability and cytotoxicity assay; format: cell-based, human; details: 72 h
Procedure: (§1) Cell viability and cytotoxicity assay—Cancer cells (3×10^3/well) were seeded on a flat bottom 96-well plate overnight. […] CellTiter Glo reagent (Promega, Madison, WI) was added in each well (50 μL). The luminescence generated was recorded using a microplate reader (Tecan US Inc., Morrisville, NC). The dose response curves were plotted, and the half maximal inhibitory concentrations (IC50 values) were calculated using Graph Pad Prism 6.0 software.

[2] = test system: Renca; test: Cell viability and cytotoxicity assay; format: cell-based, murine; details: 72 h
Procedure: as §1

[3] = test system: panel of BC cell lines; test: Cell viability and cytotoxicity assay, panel; format: cell-based
Procedure: as §1

[4] = test system: kidney injury molecule-1 (KIM-1) and neutrophil gelatinase-associated lipocalin (NGAL); test: Nephrotoxicity studies, urinary renal injury biomarkers by ELISA; format: in vivo, BALB/c mice; details: single i.v. dose
Procedure: (§2) The level of the acute renal injury biomarkers, neutrophil gelatinase-associated lipocalin (NGAL) and kidney injury molecule-1 (KIM-1) in the urine samples, were measured using ELISA assays according to the manufacturer's instructions (R&D Systems, Minneapolis, MN). […] All the animals (n=3/group) were euthanized at the end of the treatment and the kidneys were collected and fixed in 10% neutral buffered formalin. The tissues were then processed, embedded in paraffin, sectioned, and stained with H&E. Immunohistochemistry (IHC) for kidney injury (NGAL and KIM-I) was also performed.

[5] = test system: orthotopic human UMUC-3 tumors; test: Therapeutic efficacy for treating BC, orthotopic UMUC-3/GFP-Luc xenograft; details: for anti-tumor activity of i.v. DM1-Bdd versus i.v. DM1: bioluminescence imaging during 3 once-per-week treatments; for animal survival compared to i.t. MIT / survival after 100 days / tumor growth inhibition compared to i.t. MIT: 0.75 mg/kg weekly for 3 weeks
From the text: These animals were immediately euthanized I week after the completion of the treatment schedule.
(§3) Slides were then counterstained with Hematoxylin.

[6] = test system: Renca/GFP-Luc tumors; test: Kidney cancer treatment, orthotopic Renca/GFP-Luc syngeneic model; format: in vivo, female BALB/c mice; murine tumor cells
Procedure: Evaluation of DM1-Bdd for Kidney cancer treatment—Renca/GFP-Luc cells ([…]) in PBS (3 μL) were orthotopically implanted into the kidney capsules of 7- to 9-week-old female BALB/c mice (Jackson Laboratory, Bar Harbor, ME) as previously described. The tumor progression was confirmed by bioluminescence imaging. […] The animals were monitored for tumor growth inhibition and survival as described above. Additional mice were used for histopathological analysis (n=4/group).
as §3

[7] = Hematology, complete blood count; format: in vivo, female BALB/c mice
Procedure: (§4) Necropsy—Seven- to 9-week-old female BALB/c mice (n=4/group) were treated weekly with PBS, DM1, DM1-peptide (0.75 mg/kg of drug content), or cisplatin (10 mg/kg) via tail-vein injection (150 μL). At the end of a 3-week treatment, mice were euthanized. The organs/tissues were harvested, fixed in 10% neutral buffered formalin for 2 days. Bones were decalcified in a formic acid solution (Surgipath Decalcifier I; Leica Biosystems, Weltzar, Germany). The samples were then embedded in paraffin, sectioned (5 μm), and stained with H&E for examination by an ACVP board certified anatomic pathologist.
(§5) Hematology and biochemistry—Blood samples were collected via cardiac puncture. A complete blood count, including red blood cell, white blood cell, reticulocyte and platelet counts, with an automated differential leukocyte count, was performed using an IDEXX Procyte DX hematology analyzer (iDEXX, Westbrook. ME). Blood smears were prepared, stained with modified Wright's stain, examined in a blinded fashion by a board-certified veterinary clinical pathologist (T.S.), and imaged using a Nikon Eclipse TE2000-U fluorescent microscope equipped with a photometrics CoolSNAP HQ^2 camera (Nikon Corporation, Tokyo, Japan). The blood was also centrifuged (1,500×G) for 15 min to obtain the serum for biochemical analysis using a Beckman Coulter AU680 analyzer (Beckman Coulter, Brea, CA).

[8] = Serum biochemistry; format: in vivo, female BALB/c mice; details: i.v. weekly for 3 weeks, CIS 10 mg/kg; for hepatotoxicity: release of ALP, ALT, and AST / urea nitrogen/creatinine ratio: DM1/DM1-Bdd 0.75 mg/kg
From the text: as §4, with “At” for “Necropsy—Seven- to 9-week-old female BALB/c mice (n=4/group) were treated weekly with PBS, DM1, DM1-peptide (0.75 mg/kg of drug content), or cisplatin (10 mg/kg) via tail-vein injection (150 μL). At”
as §5

[9] = test system: major organs (liver, spleen, heart, lungs, and kidneys); test: Necropsy, histopathology of major organs; format: in vivo, female BALB/c mice
From the text: as §4, with “At” for “Necropsy—Seven- to 9-week-old female BALB/c mice (n=4/group) were treated weekly with PBS, DM1, DM1-peptide (0.75 mg/kg of drug content), or cisplatin (10 mg/kg) via tail-vein injection (150 μL). At”

[10] = In vitro drug release study, DM1-peptide; format: physicochemical; details: GSH (1 mM), PBS
Procedure: In vitro drug release study—DM1-peptide conjugates (10 μM of drug content) were incubated in the presence of the reducing agent GSH (1 mM) in PBS buffer (800 μL). At different time intervals (0, 2, 4, 6, 8, 12, 24, and 48 h), a small amount of solution (100 μL) was taken out for HPLC analysis using C18 analytical column. The amount of DM1 active metabolites released overtime was measured (absorbance detected at 254 nm) and then quantified. The experiment was performed independently in triplicate. A similar experiment was performed to quantify the release of aldox. Aldox-peptide conjugates (100 μM of drug content) were incubated in PBS buffer (800 μL) with different pH (7.4 and 5.5) in a glass vial coated with silica to avoid non-specific adsorption on the reaction vessel surfaces. The amount of drug released over time was then measured as described above (absorbance detected at 480 nm). For accurate quantification, all the results were normalized compared to a DOX control incubated in similar conditions.

[11] = test system: kidneys; test: Nephrotoxicity studies, kidney histology and immunohistochemistry (NGAL and KIM-1); format: in vivo, BALB/c mice; details: 3 days after i.v. administration; CIS 10 mg/kg, DM1-Bdd 0.75 mg/kg of drug content
Procedure: as §3, §2

[12] = one week after completing the treatment course
[13] = i.v., 0.75 mg/kg weekly for 3 weeks
[14] = i.v., 0.75 mg/kg of drug content weekly for 3 weeks
[15] = i.v. weekly for 3 weeks, DM1/DM1-Bdd 0.75 mg/kg, CIS 10 mg/kg

COc1cc2cc(c1Cl)N(C)C(=O)C[C@H](OC(=O)[C@H](C)N(C)C(=O)CCS)[C@]1(C)O[C@H]1[C@H](C)[C@@H]1C[C@@](O)(NC(=O)O1)[C@H](OC)/C=C/C=C(\C)C2 [DM1, N2′-deacetyl-N2′-(3-mercapto-1-oxopropyl)-maytansine]
IC50 against UMUC-3 [1]: nanomolar (nM) range | potency against UMUC-3 compared to other chemotherapeutics [1]: more potent than cisplatin (CIS), doxorubicin (DOX) and mitomycin (MIT), and as effective as gemcitabine (GEM) | potency compared to DOX [1]: more potent than DOX | effectiveness against Renca cell line [2]: effective | fold more potent than commonly used ITC drugs, including MIT, DOX and CIS [3]: 100 fold | induction of KIM-1 and/or NGAL, 3 days ([4]; 3 days): continued induction of KIM-1 and/or NGAL | anti-tumor activity of i.v. DM1-Bdd versus i.v. DM1 [5]: similar | animal survival compared to i.t. MIT ([5]; i.v.): prolonged animal survival | survival after 100 days ([5]; i.v.): 0% | tumor growth inhibition compared to i.t. MIT ([5]; i.v.): more effective in inhibiting tumor growth | survival, i.v. or i.t. ([6]; i.v. or i.t., 0.75 mg/kg weekly for 3 weeks): died | tumor in kidneys by histological examination [6, 12]: large and accompanied with an infiltration of mononuclear cells | inflammatory response [7, 13]: inflammatory response characterized by increased proportions of neutrophils, monocytes, and platelets | reticulocytes [7, 13]: induced reticulocytosis without apparent anemia | muscle injury (CK activity) ([8]; DM1 0.75 mg/kg): induced muscle injury (CK activity) | hepatotoxicity: release of ALP, ALT, and AST [8]: increases in ALT and AST activities | urea nitrogen/creatinine ratio [8]: increases in ALT and AST activities and BUN/creatinine ratios | overall toxicity ([9]; i.v. weekly for 3 weeks): evidences of hepatic and renal injury | extramedullary hematopoiesis (EMH), splenic and hepatic [9, 13]: Increased splenic and hepatic EMH

COc1cc2cc(c1Cl)N(C)C(=O)C[C@H](OC(=O)[C@H](C)N(C)C(=O)CCSSCCC(=O)NCCC(=O)N[C@H](CC(=O)O)C(=O)N[C@H](CC(=O)O)C(=O)NCCC(=O)N[C@H](CC(=O)O)C(=O)N[C@H](CC(=O)O)C(=O)NCCC(=O)N[C@H](CC(=O)O)C(=O)N[C@H](CC(=O)O)C(=O)NCCC(=O)N[C@H](CC(=O)O)C(=O)N[C@H](CC(=O)O)C(N)=O)[C@]1(C)O[C@H]1[C@H](C)[C@@H]1C[C@@](O)(NC(=O)O1)[C@H](OC)/C=C/C=C(\C)C2 [DM1-Bdd] ([Mpa](X1)[βAla][dD][dD][βAla][dD][dD][βAla][dD][dD][βAla][dD][dD]-NH2)
drug release in a reducing environment [10]: enabling drug release in a reducing environment | time for KIM-1 and NGAL to return to basal levels ([4]; 0.75 mg/kg of drug content): ≤ 3 days | levels of KIM-1 and NGAL in the urine, 1 day ([4]; 0.75 mg/kg of drug content, 1 day): slightly increased | histologic examination of kidneys [11]: did not reveal any abnormalities in the kidneys | immunoreactivity of kidney sections for KIM-1 and NGAL [11]: no elevation of the immunoreactivity | treatment outcome of i.v. compared to i.t. administration ([5]; 0.75 mg/kg of drug content weekly for 3 weeks): better treatment outcome; also recorded: more effective | anti-tumor activity of i.v. DM1-Bdd versus i.v. DM1 [5]: similar | survival after 100 days ([5]; i.v.): 36% | tumor growth inhibition compared to i.t. MIT ([5]; i.v.): more effective in inhibiting tumor growth | animal survival compared to i.t. MIT ([5]; i.v., 0.75 mg/kg): prolonged animal survival; also recorded: improved the overall survival | animals for which treatment was curative ([5]; i.v., 210 days): 21% | gross and histologic evidence of tumors in survivor mice ([5]; i.v., 210 days): lacked gross and histologic evidence (using GFP and Ki67 immunostaining) of tumors | animals which lacked gross and histologic evidence of tumors ([5]; i.v., 210 days after tumor implantation): 3 animals | tumor size by histology ([5]; i.v., end of treatment): smaller | GFP-positive cells ([5]; i.v., immunohistochemistry): fewer GFP-positive cells | proportion of cells expressing Ki67 ([5]; i.v., immunohistochemistry): lower proportion of cells expressing the proliferation marker (Ki67) | survival benefit compared to the free drug ([6]; i.v.): significant survival benefit compared to the free drug | bioluminescence signals in the majority of the animals [6, 14]: decreased bioluminescence signals | survival after 160 days [6, 14]: 50% | tumor progression [6, 14]: inhibit tumor progression | tumor size [6, 14]: reduced tumor size | animals lacking gross or histologic evidence of the tumor [6, 12]: approximately 50% | tumor in kidneys by histological examination [6, 12]: Minimal tumor was present | red blood cell, leukocyte, or platelet counts or morphologic features [7, 15]: did not affect the red blood cell, leukocyte, or platelet counts or morphologic features | hepatotoxicity: release of ALP, ALT, and AST [8]: not hepatotoxic, with no significant alteration in the release of ALP, ALT, and AST | urea nitrogen/creatinine ratio [8]: normal | overall toxicity ([9]; i.v. weekly for 3 weeks): did not induce unwanted toxicity; also recorded: safe toxicity profile | histopathology of liver, spleen, heart, lungs, or kidneys [9, 15]: no morphological evidence of injury in the liver, spleen, heart, lungs, or kidneys
